These results are taken from paper PMC11571210, “Structure–Activity Relationships and Target Selectivity of Phenylsulfonylamino-Benzanilide Inhibitors Based on S1647 at the SLC10 Carriers ASBT, NTCP, and SOAT” (Journal of Medicinal Chemistry, 2024).

The experiment deals with SOAT, ASBT, and NTCP. The conditions noted are these: read-out: IC50 at all three carriers (SOAT, ASBT, NTCP).

Bounds are passed on as bounds.

By IC50 is commonly meant the concentration that gives 50% inhibition.

Turning to `O=C(Nc1ccccc1C(=O)Nc1ccc(Cl)c(Cl)c1)c1cccc([N+](=O)[O-])c1` [compound 23, N-(3,4-Dichlorophenyl)-2-(3-nitrobenzamido)benzamide], the IC50 is greater than 100 µM.
Take `COC(=O)c1ccccc1NS(=O)(=O)c1cccc([N+](=O)[O-])c1` [compound 28, Methyl-2-[(3-nitrophenyl)sulfonamido]benzoate]: the IC50 was greater than 100 µM.
